In publication PMC4686731, “Screening of Pharmacologically Active Small Molecule Compounds Identifies Antifungal Agents Against Candida Biofilms” (Frontiers in Microbiology, 2015):
In brackets after ≈: the same amount, converted by molar mass. Where two headings read alike, the source gives them in different places.

What was measured:
Candida strains = experiment: AST, adhesion phase, all Candida strains; format: cell-based; conditions: all six strains
Method: (§1) The in vitro susceptibility of well-characterized wild-type C. albicans strain SC5314, which was provided by Prof. N.A.R. Gow (University of Aberdeen, Aberdeen, UK) was tested against 1280 compounds from the Library of Pharmacologically Active Compounds (LOPAC^1280TM, Sigma–Aldrich, USA). The screen was performed with C. albicans SC5314, and hits were further confirmed with the type strains C. dubliniensis MYA 577, C. glabrata ATCC 2001, C. kusei ATCC 6258, C. palapsilosis ATCC 22019, and C. tropicalis ATCC13803.
To investigate the antifungal effects of the hit compounds, ASTs were conducted using broth microdilution assays with high cell densities of the planktonic mode, adhesion phase and biofilm mode against Candida strains (C. albicans, C. dubliniensis, C. glabrata, C. kusei, C. palapsilosis, and C. tropicalis). First, high density cell (1 × 10^7 cells/mL) suspensions were added to the RPMI medium containing each hit compound (10–1000 μM) in 96-well plates and incubated at 37°C for 24 h. Next, the 50% minimum inhibitory concentrations (MICs) of high-density Candida planktonic cultures were determined using the CellTiter-Glo luminescent cell viability kit, as described above. The antifungal effects of the hit compounds were also evaluated in the adhesion phase and the biofilm mode, in the same manner as the planktonic mode. Candida biofilms were produced as described previously ([Jin et al., 2004]). In brief, Candida cells were grown on SDA at 37°C for 18 h. A loopful of the yeast culture was then inoculated into yeast nitrogen base (YNB) (Difco, USA) medium supplemented with 50 mM glucose. After overnight broth culture in a rotary shaker at 75 rpm, the cells were washed twice with 20 mL of PBS (pH 7.2, 0.1 M). The yeast cells were re-suspended in YNB supplemented with 100 mM glucose and adjusted to an optical density of 0.38 (1 × 10^7 cells/mL) at 520 nm. This standardized cell suspension was used immediately to form biofilms in the wells of 96-well polystyrene culture plates (Iwaki, Tokyo, Japan). […]

C. glabrata ATCC 2001 = experiment: AST, adhesion phase; format: cell-based; conditions: Nakaseomyces glabratus, ATCC2001, 1.5 h, read-out: Minimum inhibitory concentration (MIC)
Method: as §1
(§2) To investigate the antifungal effects of the hit compounds, ASTs were conducted using broth microdilution assays with high cell densities of the planktonic mode, adhesion phase and biofilm mode against Candida strains (C. albicans, C. dubliniensis, C. glabrata, C. kusei, C. palapsilosis, and C. tropicalis). First, high density cell (1 × 10^7 cells/mL) suspensions were added to the RPMI medium containing each hit compound (10–1000 μM) in 96-well plates and incubated at 37°C for 24 h. Next, the 50% minimum inhibitory concentrations (MICs) of high-density Candida planktonic cultures were determined using the CellTiter-Glo luminescent cell viability kit, as described above. The antifungal effects of the hit compounds were also evaluated in the adhesion phase and the biofilm mode, in the same manner as the planktonic mode. Candida biofilms were produced as described previously ([Jin et al., 2004]). In brief, Candida cells were grown on SDA at 37°C for 18 h. A loopful of the yeast culture was then inoculated into yeast nitrogen base (YNB) (Difco, USA) medium supplemented with 50 mM glucose. After overnight broth culture in a rotary shaker at 75 rpm, the cells were washed twice with 20 mL of PBS (pH 7.2, 0.1 M). The yeast cells were re-suspended in YNB supplemented with 100 mM glucose and adjusted to an optical density of 0.38 (1 × 10^7 cells/mL) at 520 nm. This standardized cell suspension was used immediately to form biofilms in the wells of 96-well polystyrene culture plates (Iwaki, Tokyo, Japan). First, the cells were incubated for 90 min at 37°C in a shaker at 75 rpm to allow yeast adherence to the well surface (adhesion phase), before the medium was aspirated and each well was washed once with PBS to remove non-adherent cells. YNB containing 100 mM glucose was then pipetted into each well and the plate was incubated at 37°C in a shaker at 75 rpm for 24 h. Non-adherent cells were removed by pipetting and the biofilms were washed twice with PBS. Following this biofilm growth phase, microscopic examination of the cultures was performed to exclude contamination. These ASTs were repeated on three different occasions.

C. kusei ATCC 6258 = experiment: AST, adhesion phase; format: cell-based; conditions: 1.5 h, read-out: Minimum inhibitory concentration (MIC)
Method: as §1, §2

C. albicans SC5314 = experiment: AST, adhesion phase; format: cell-based; conditions: Candida albicans, SC5314, 1.5 h, read-out: Minimum inhibitory concentration (MIC)
Method: as §1, §2

C. tropicalis ATCC13803 = experiment: AST, adhesion phase; format: cell-based; conditions: Candida tropicalis, ATCC13803, 1.5 h, read-out: Minimum inhibitory concentration (MIC)
Method: as §1, §2

C. dubliniensis MYA 577 = experiment: AST, adhesion phase; format: cell-based; conditions: Candida dubliniensis, MYA577, 1.5 h, read-out: Minimum inhibitory concentration (MIC)
Method: as §1, §2

[1] = system: C. palapsilosis ATCC 22019; experiment: AST, adhesion phase; format: cell-based; conditions: 1.5 h, read-out: Minimum inhibitory concentration (MIC)
Method: as §1, §2

[2] = system: C. albicans strain SC5314; experiment: High-throughput screening (HTS) with antifungal susceptibility test, CellTiter-Glo ATP read-out; format: cell-based, Candida albicans; conditions: for inhibition at 10 µM: Candida albicans, SC5314, 24 h; for fungistatic or fungicidal effect on C. albicans: HTS; for percent inhibition of the metabolic activity (ATP level) of C. albicans: 10 µM
Method: as §1
High-Throughput Screening was conducted using ASTs, according to the standard Clinical and Laboratory Standard Institute (CLSI) method ([Watamoto et al., 2009]). Inocula from 24-h yeast cultures on Sabouraud’s dextrose agar (SDA) (Gibco, UK) were adjusted to a turbidity equivalent to a 0.5 McFarland standard at 520 nm using a spectrophotometer. The suspension was diluted further with RPMI 1640 medium (Gibco, UK) to yield an inoculum concentration of 0.5 × 10^3 to 2.5 × 10^3 cells/mL. C. albicans was incubated with small-molecule compounds (10 μM) from LOPAC^1280TM, which total volume was 150 μL, in 96-well plates at 37°C for 24 h to evaluate the antifungal effects. After incubation, the viability of the fungal cells was determined using the CellTiter-Glo luminescent cell viability kit (Promega, USA). The CellTiter-Glo reagent (150 μL) was added to the medium and incubated for 15 min at room temperature with shaking at 900 rpm. The luminescent signals were detected using a luminometer (GloMax Discover System, Promega, USA). The resulting signal intensity corresponds to ATP amounts and thus to the number of viable microbial cells upon drug exposure ([Stylianou et al., 2014]). In all 96-well plates, 100 and 0% growth controls were included as microbes plus dimethyl sulfoxide (0.1%) and microbes plus amphotericin B (100 μM), respectively. All assays were performed at least as two biological replicates in triplicate. The ATP level of C. albicans cells, which corresponded to the cell metabolic activity and viability, was calculated for each compound using the following equation (Figure 1A).
Percentageinhibition=100 × 1-{(experimental-positivecontrolaverage)/(negativecontrolaverage-positivecontrolaverage)}
Wells were scored as hits if the percentage inhibition was >50%. Hit compounds were evaluated further to assess their antifungal effects.

[3] = compound 10 μM, 0.5 × 10^3 to 2.5 × 10^3 cells/mL, 37°C, 24 h
[4] = adhesion phase (90 min adherence)
[5] = compound 10 μM, 0.5 × 10^3 to 2.5 × 10^3 cells/mL, 37°C, 24 h, read-out: percent inhibition of the metabolic activity (ATP level) of C. albicans

Structure (SMILES) | concentration that inhibited the metabolic activity of Candida strains (Candida strains) | MIC (C. glabrata ATCC 2001) | MIC (C. kusei ATCC 6258) | MIC (C. albicans SC5314) | MIC (C. tropicalis ATCC13803) | MIC (C. dubliniensis MYA 577) | MIC [1] | inhibition at 10 µM ([2]; read-out: percent inhibition of the metabolic activity (ATP level) of C. albicans, compound 10 μM, 0.5 × 10^3 to 2.5 × 10^3 cells/mL, 37°C, 24 h) | fungistatic or fungicidal effect on C. albicans ([2]; compound 10 μM) | percent inhibition of the metabolic activity (ATP level) of C. albicans [2, 3] | MIC (C. glabrata ATCC 2001; [4]) | MIC (C. kusei ATCC 6258; [4]) | MIC (C. albicans SC5314; [4]) | MIC (C. tropicalis ATCC13803; [4]) | MIC (C. dubliniensis MYA 577; [4]) | MIC [1, 4] | inhibition at 10 µM [2, 5]
C[n+]1cc2c3c(ccc2c2ccc4cc5c(cc4c21)OCO5)OCO3 [Sanguinarine, Sanguinarine chloride hydrate] | < 15.6 µM | 15.6 µM | 7.8 µM | 15.6 µM | 7.8 µM | 15.6 µM | 7.8 µM | 100% | strong fungicidal effects | > 90% | – | – | – | – | – | – | –
Cc1c2ccncc2c(C)c2c1[nH]c1ccccc12 [Ellipticine] | – | – | – | – | – | – | – | – | strong fungicidal effects | > 90% | 62.5 µM (≈ 15.4 µg/mL) | 250 µM (≈ 61.6 µg/mL) | 62.5 µM (≈ 15.4 µg/mL) | 250 µM (≈ 61.6 µg/mL) | 125 µM (≈ 30.8 µg/mL) | 125 µM (≈ 30.8 µg/mL) | 100%
Cc1ccc(S(=O)(=O)/C=C/C#N)cc1 [Bay11-7082] | < 31.3 µM | – | – | – | – | – | – | – | strong fungicidal effects | > 90% | 31.3 µM (≈ 6.49 µg/mL) | 15.6 µM (≈ 3.23 µg/mL) | 31.3 µM (≈ 6.49 µg/mL) | 31.3 µM (≈ 6.49 µg/mL) | 15.6 µM (≈ 3.23 µg/mL) | 15.6 µM (≈ 3.23 µg/mL) | 100%
CC(C)(C)c1ccc(S(=O)(=O)/C=C/C#N)cc1 [Bay11-7085] | < 31.3 µM | – | – | – | – | – | – | – | strong fungicidal effects | > 90% | 31.3 µM (≈ 7.8 µg/mL) | 15.6 µM (≈ 3.89 µg/mL) | 31.3 µM (≈ 7.8 µg/mL) | 31.3 µM (≈ 7.8 µg/mL) | 15.6 µM (≈ 3.89 µg/mL) | 7.8 µM (≈ 1.94 µg/mL) | 100%
